Data on one molecule can be found in ChEMBL document CHEMBL3351686, “Facile and diastereoselective synthesis of 3,2'-spiropyrrolidine-oxindoles derivatives, their molecular docking and antiproliferative activities” (2015).

Usually MIC stands for the least concentration at which growth counts as inhibited.

Values after ≈ are worked out from the molar mass of the structure shown.

For one experiment, the system named is Salmonella typhimurium. The experiment can be described thus: Antibacterial activity against Salmonella typhimurium MTCC 1251 assessed as zone of inhibition at 1 mg/disc after 24 hrs by disc diffusion method. In kind it is functional, Salmonella enterica subsp. enterica serovar Typhimurium.
Details: not given
`N#C[C@]1(C(=O)c2c[nH]c3ccccc23)C2CCCN2[C@]2(C(=O)Nc3ccccc32)[C@@H]1c1cn(-c2ccccc2)nc1-c1ccccc1` (some centres not stated): the “inhibition zone (IZ)” value is given as 8 mm.

The next experiment relates to Klebsiella pneumoniae. The experiment can be described thus: Antibacterial activity against Klebsiella pneumoniae MTCC 109 assessed as zone of inhibition at 1 mg/disc after 24 hrs by disc diffusion method. Format: functional.
Details: not given
For orientation: A growth-free zone around the sample is the usual read-out of agar diffusion tests.
For the molecule `N#C[C@]1(C(=O)c2c[nH]c3ccccc23)C2CCCN2[C@]2(C(=O)Nc3ccccc32)[C@@H]1c1cn(-c2ccccc2)nc1-c1ccccc1` (some centres not stated), the “inhibition zone (IZ)” value was determined as 9 mm.

The subject of the next experiment is Proteus vulgaris. The experiment can be described thus: Antibacterial activity against Proteus vulgaris MTCC 1771 assessed as zone of inhibition at 1 mg/disc after 24 hrs by disc diffusion method. In kind it is functional.
Details: not given
As to `N#C[C@]1(C(=O)c2c[nH]c3ccccc23)C2CCCN2[C@]2(C(=O)Nc3ccccc32)[C@@H]1c1cn(-c2ccccc2)nc1-c1ccccc1` (some centres not stated), the “inhibition zone (IZ)” value is recorded as 12 mm.

For the next experiment, the system named is Shigella flexneri. The experiment can be described thus: Antibacterial activity against Shigella flexneri MTCC 1457 assessed as zone of inhibition at 1 mg/disc after 24 hrs by disc diffusion method.
Details: not given
In kind it is functional.
In the case of `N#C[C@]1(C(=O)c2c[nH]c3ccccc23)C2CCCN2[C@]2(C(=O)Nc3ccccc32)[C@@H]1c1cn(-c2ccccc2)nc1-c1ccccc1` (some centres not stated), the “inhibition zone (IZ)” value was 10 mm.

The subject of the next experiment is Micrococcus luteus. The experiment can be described thus: Antibacterial activity against Micrococcus luteus MTCC 106 assessed as zone of inhibition at 1 mg/disc after 24 hrs by disc diffusion method. Format: functional.
Details: not given
`N#C[C@]1(C(=O)c2c[nH]c3ccccc23)C2CCCN2[C@]2(C(=O)Nc3ccccc32)[C@@H]1c1cn(-c2ccccc2)nc1-c1ccccc1` (some centres not stated): the “inhibition zone (IZ)” value is 11 mm.

A further experiment has as its system Klebsiella aerogenes. Briefly: Antibacterial activity against Enterobacter aerogenes MTCC 111 assessed as zone of inhibition at 1 mg/disc after 24 hrs by disc diffusion method. Format: functional.
Details: not given
With `N#C[C@]1(C(=O)c2c[nH]c3ccccc23)C2CCCN2[C@]2(C(=O)Nc3ccccc32)[C@@H]1c1cn(-c2ccccc2)nc1-c1ccccc1` (some centres not stated), the “inhibition zone (IZ)” value is 12 mm.

For the next experiment, the system named is Staphylococcus epidermidis. Briefly: Antibacterial activity against Staphylococcus epidermidis MTCC 3615 assessed as zone of inhibition at 1 mg/disc after 24 hrs by disc diffusion method.
Details: not given
Format: functional.
With `N#C[C@]1(C(=O)c2c[nH]c3ccccc23)C2CCCN2[C@]2(C(=O)Nc3ccccc32)[C@@H]1c1cn(-c2ccccc2)nc1-c1ccccc1` (some centres not stated), the “inhibition zone (IZ)” value is reported as 13 mm.

A further experiment has as its system Staphylococcus aureus. The experiment can be described thus: Antibacterial activity against Staphylococcus aureus MTCC 96 assessed as zone of inhibition at 1 mg/disc after 24 hrs by disc diffusion method. In kind it is functional.
Details: not given
With `N#C[C@]1(C(=O)c2c[nH]c3ccccc23)C2CCCN2[C@]2(C(=O)Nc3ccccc32)[C@@H]1c1cn(-c2ccccc2)nc1-c1ccccc1` (some centres not stated), the “inhibition zone (IZ)” value worked out at 12 mm.

In the next experiment the test system is Staphylococcus aureus. The experiment can be described thus: Antibacterial activity against methicillin-resistant Staphylococcus aureus assessed as zone of inhibition at 1 mg/disc after 24 hrs by disc diffusion method. Format: functional.
Details: not given
Take `N#C[C@]1(C(=O)c2c[nH]c3ccccc23)C2CCCN2[C@]2(C(=O)Nc3ccccc32)[C@@H]1c1cn(-c2ccccc2)nc1-c1ccccc1` (some centres not stated): the “inhibition zone (IZ)” value is on record as 10 mm.

In another experiment the test system is Candida albicans. The experiment can be described thus: Antifungal activity against Candida albicans MTCC 227 assessed as zone of inhibition at 1 mg/disc after 48 hrs by disc diffusion method. Format: functional.
Details: not given
Regarding `N#C[C@]1(C(=O)c2c[nH]c3ccccc23)C2CCCN2[C@]2(C(=O)Nc3ccccc32)[C@@H]1c1cn(-c2ccccc2)nc1-c1ccccc1` (some centres not stated), the “inhibition zone (IZ)” value came out at 10 mm.

In another experiment the test system is Malassezia pachydermatis. Briefly: Antifungal activity against Malassezia pachydermatis assessed as zone of inhibition at 1 mg/disc after 48 hrs by disc diffusion method. Format: functional.
Details: not given
`N#C[C@]1(C(=O)c2c[nH]c3ccccc23)C2CCCN2[C@]2(C(=O)Nc3ccccc32)[C@@H]1c1cn(-c2ccccc2)nc1-c1ccccc1` (some centres not stated): the “inhibition zone (IZ)” value turned out to be 8 mm.

In another experiment the test system is Salmonella typhimurium. The experiment can be described thus: Antibacterial activity against Salmonella typhimurium MTCC 1251 assessed as inhibition of visual growth after 24 hrs. Conditions: Salmonella enterica, MTCC 1251, 24 h. In kind it is functional, Salmonella enterica subsp. enterica serovar Typhimurium.
Regarding `N#C[C@]1(C(=O)c2c[nH]c3ccccc23)C2CCCN2[C@]2(C(=O)Nc3ccccc32)[C@@H]1c1cn(-c2ccccc2)nc1-c1ccccc1` (some centres not stated), the MIC was found to be 250 µg/mL (≈ 407 µM).

The subject of the next experiment is Klebsiella pneumoniae. Briefly: Antibacterial activity against Klebsiella pneumoniae MTCC 109 assessed as inhibition of visual growth after 24 hrs. In kind it is functional. Conditions: MTCC 109, 24 h.
`N#C[C@]1(C(=O)c2c[nH]c3ccccc23)C2CCCN2[C@]2(C(=O)Nc3ccccc32)[C@@H]1c1cn(-c2ccccc2)nc1-c1ccccc1` (some centres not stated): the MIC is 31.2 µg/mL (≈ 50.8 µM).

The test system of a further experiment is Proteus vulgaris. The experiment can be described thus: Antibacterial activity against Proteus vulgaris MTCC 1771 assessed as inhibition of visual growth after 24 hrs. In kind it is functional. Conditions: MTCC 1771, 24 h.
Regarding `N#C[C@]1(C(=O)c2c[nH]c3ccccc23)C2CCCN2[C@]2(C(=O)Nc3ccccc32)[C@@H]1c1cn(-c2ccccc2)nc1-c1ccccc1` (some centres not stated), the MIC came to 125 µg/mL (≈ 203 µM).

In a further experiment the test system is Shigella flexneri. The experiment can be described thus: Antibacterial activity against Shigella flexneri MTCC 1457 assessed as inhibition of visual growth after 24 hrs. In kind it is functional. Conditions: MTCC 1457, 24 h.
With `N#C[C@]1(C(=O)c2c[nH]c3ccccc23)C2CCCN2[C@]2(C(=O)Nc3ccccc32)[C@@H]1c1cn(-c2ccccc2)nc1-c1ccccc1` (some centres not stated), the minimum inhibitory concentration (MIC) is 31.2 µg/mL (≈ 50.8 µM).

The test system of the next experiment is Micrococcus luteus. Briefly: Antibacterial activity against Micrococcus luteus MTCC 106 assessed as inhibition of visual growth after 24 hrs. Conditions: MTCC 106, 24 h. Format: functional.
Take `N#C[C@]1(C(=O)c2c[nH]c3ccccc23)C2CCCN2[C@]2(C(=O)Nc3ccccc32)[C@@H]1c1cn(-c2ccccc2)nc1-c1ccccc1` (some centres not stated): the MIC is 31.2 µg/mL (≈ 50.8 µM).

A further experiment has as its system Klebsiella aerogenes. The experiment can be described thus: Antibacterial activity against Enterobacter aerogenes MTCC 111 assessed as inhibition of visual growth after 24 hrs. Conditions: MTCC 111, 24 h. In kind it is functional.
As to `N#C[C@]1(C(=O)c2c[nH]c3ccccc23)C2CCCN2[C@]2(C(=O)Nc3ccccc32)[C@@H]1c1cn(-c2ccccc2)nc1-c1ccccc1` (some centres not stated), the MIC was 62.5 µg/mL (≈ 102 µM).

In another experiment the test system is Staphylococcus epidermidis. Briefly: Antibacterial activity against Staphylococcus epidermidis MTCC 3615 assessed as inhibition of visual growth after 24 hrs. In kind it is functional. Conditions: MTCC 3615, 24 h.
In the case of `N#C[C@]1(C(=O)c2c[nH]c3ccccc23)C2CCCN2[C@]2(C(=O)Nc3ccccc32)[C@@H]1c1cn(-c2ccccc2)nc1-c1ccccc1` (some centres not stated), the MIC stood at 62.5 µg/mL (≈ 102 µM).

A further experiment deals with Staphylococcus aureus. The experiment can be described thus: Antibacterial activity against Staphylococcus aureus MTCC 96 assessed as inhibition of visual growth after 24 hrs. In kind it is functional. Conditions: MTCC 96, 24 h.
With `N#C[C@]1(C(=O)c2c[nH]c3ccccc23)C2CCCN2[C@]2(C(=O)Nc3ccccc32)[C@@H]1c1cn(-c2ccccc2)nc1-c1ccccc1` (some centres not stated), the MIC came out at 31.2 µg/mL (≈ 50.8 µM).

A further experiment concerns Staphylococcus aureus. The experiment can be described thus: Antibacterial activity against methicillin-resistant Staphylococcus aureus assessed as inhibition of visual growth after 24 hrs. Format: functional.
Details: not given
As to `N#C[C@]1(C(=O)c2c[nH]c3ccccc23)C2CCCN2[C@]2(C(=O)Nc3ccccc32)[C@@H]1c1cn(-c2ccccc2)nc1-c1ccccc1` (some centres not stated), the MIC stood at 31.2 µg/mL (≈ 50.8 µM).

In the next experiment the test system is Candida albicans. The experiment can be described thus: Antifungal activity against Candida albicans MTCC 227 assessed as inhibition of visual growth after 48 to 72 hrs.
Details: not given
Format: functional.
For the molecule `N#C[C@]1(C(=O)c2c[nH]c3ccccc23)C2CCCN2[C@]2(C(=O)Nc3ccccc32)[C@@H]1c1cn(-c2ccccc2)nc1-c1ccccc1` (some centres not stated), the MIC was determined as 125 µg/mL (≈ 203 µM).

Another experiment has as its system Malassezia pachydermatis. The experiment can be described thus: Antifungal activity against Malassezia pachydermatis assessed as inhibition of visual growth after 48 to 72 hrs. In kind it is functional.
Details: not given
For `N#C[C@]1(C(=O)c2c[nH]c3ccccc23)C2CCCN2[C@]2(C(=O)Nc3ccccc32)[C@@H]1c1cn(-c2ccccc2)nc1-c1ccccc1` (some centres not stated), the MIC is 500 µg/mL (≈ 813 µM).
